The record followed here is patent US8496928B2, “Method for preventing and treating cardiovascular diseases with BRCA1” (priority 2008, dated 2013).

Holding throughout (type): cell-based, human
The test system of assay [1] is HUVECs. Put plainly: HUVEC apoptosis assays (Annexin V-FITC/PI flow cytometry, cleaved caspase-3, DNA fragmentation). Conditions: ad-null infected HUVECs, TNFα 20 ng/ml 24 hours. As to the method: In FIG. 23A ad-null or ad-BRCA1 infected HUVECs were treated with TNFα (20 ng/ml) for 24 hours. Cells were harvested for Annexin V-FITC and Propidium Iodide staining followed by flow cytometry. Total apoptotic cells are shown as mean±SD (n=3 in triplicate, **p<0.01). In FIG. 23B, HUVECs were treated with either siBRCA1 (10 nM) or scrambled siRNA (10 nM) for 24 hours. BRCA1-silenced and control HUVECs were treated with TNFα (20 ng/ml), stained with Annexin V-FITC and Propidium Iodide, and analyzed by flow cytometry. The percentage of total apoptotic cells are presented as mean±SD (n=3 in triplicate, **p<0.01). […] Data was calculated as the percentage of total apoptotic cells and presented as mean±SD (n=3 in triplicate, **p<0.01).
FIG. 31 is a bar graph showing protection of HUVECs against doxorubicin-induced apoptosis by BRCA1 overexpression. […] Data was calculated as the percentage of total apoptotic cells and presented as mean±SD (n=3 in triplicate, *p<0.01 vs. Ad-null group, †p<0.01 vs. Ad-null+2 μM Dox group). […]
Human umbilical vein endothelial cells (HUVECs) were purchased from Cambrex and cultured in MCDB-131 complete medium (Cambrex Corporation). […] These concentrations were determined from pilot optimization studies. […]
Apoptotic and necrotic cell death were assessed in ad-BRCA1 and ad-null infected HUVECs by flow cytometry coupled with the BD Annexin V-FITC Apoptosis Detection Kit. […]

Assay [2] relates to HUVECs. Put plainly: Matrigel tube formation assay. To be noted: TNFα 20 ng/ml. As to the method:
(§1) In FIG. 24A ad-null or ad-BRCA1 infected cells were trypsinized and seeded in the presence and absence of TNFα (20 ng/ml) on coated inserts and a colorimetric assay was performed after 24 hours. Migration was calculated as a percentage of ad-null controls. (n=4, **p<0.01). In FIG. 24B, ad-null or ad-BRCA1 infected HUVECs were seeded onto matrigel in the presence or absence of TNFα (20 ng/ml). Images were taken 5 hours after seeding (original magnification 20×). In FIG. 24C data was semi-quantitatively analyzed by counting tubular structures in four fields per group. Data is presented as mean±SD (n=3 in triplicate, *p<0.05, **p<0.01). HUVECs infected with ad-null or ad-BRCA1 were treated for 24 hours with TNFα (20 ng/ml). VCAM1 (FIG. 24D, FIG. 24E), ICAM1 (FIG. 24F, FIG. 24G) and E-selectin (FIG. 24H, FIG. 24I) protein and transcript expression were determined in cell extracts via western blots and real-time PCR, respectively. GAPDH was used as a loading control for western blots and as a housekeeping gene for real-time PCR. Data are expressed as mean±SD (n=3, **p<0.01).
HUVEC-associated angiogenesis was measured with the In Vitro Angiogenesis Assay Kit from Chemicon. […] Tube formation was quantified by counting the number of tubes, branching points and network of tubes in randomly captured microscopic fields and by scoring the values for each type of structure. […]

Assay [3] deals with VCAM1, ICAM1 and E-selectin. Put plainly: VCAM1, ICAM1 and E-selectin expression in HUVECs, real-time PCR and western blot. Conditions: ad-null treated HUVECs, TNFα 20 ng/ml 24 hours. As to the method:
as §1
Western blot analysis was performed according to standard procedures. Proteins from whole cell lysates of HUVECs were resolved on SDS-polyacrylamide gels and transferred to nitrocellulose membranes (Bio-Rad). Membranes were probed with primary antibodies from Santa Cruz (BRCA1), Cell Signaling (p53, p21, Ser1177-phospho-eNOS, Akt, Ser473-phospho-Akt, cleaved caspase-3), Chemicon (GADD45a, GAPDH) and BD (eNOS). Immunoblots were incubated with the appropriate horseradish peroxidase-associated secondary antibodies before signals were visualized by chemiluminescence via the ECL detection system (GE Healthcare).
Total RNA extracted from HUVECs were reverse transcribed for quantitative assessment of VCAM1, ICAM1, E-selectin and VEGFa expressions by real-time PCR using the primer pairs listed in Table 4.
PCR reactions were performed on the ABI PRISM 7900HT system (Applied Biosystems) with GAPDH acting as the housekeeping control.

On to TNFα, for which, in assay [1], the apoptosis entry was “significant apoptosis”. In addition, in assay [2], the “capacity to form vessel-like tubular structures” value is “reduced”. In assay [3], this substance returned an E-selectin transcript upregulation of 200 times, an ICAM1 transcript upregulation of 400 times and a VCAM1 transcript upregulation of 1500 times.
